Numbers after ± are expanded uncertainties.
Settings: 101.33 kPa, Liquid; for electrical conductivity: the complex impedance method; for mass density: Vibrating tube method

For CC[N+](C)(CC)CCOC.O=S(=O)([N-]S(=O)(=O)C(F)(F)F)C(F)(F)F, the electrical conductivity (234.15 K) was 0.00083 ± 1e-05 S/m, the electrical conductivity (243.15 K) was 0.0033 ± 0.0001 S/m and the electrical conductivity (253.15 K) was 0.0113 ± 0.0001 S/m. The electrical conductivity (263.15 K) was 0.0301 ± 0.0003 S/m, the electrical conductivity (273.15 K) was 0.0662 ± 0.0007 S/m and the viscosity (283.15 K) was 166 ± 11 mPa·s. It also gave a mass density (283.15 K) of 1420.6 ± 1.9 kg/m3, an electrical conductivity (283.15 K) of 0.127 ± 0.001 S/m and a viscosity (288.15 K) of 123 ± 6 mPa·s. The mass density (288.15 K) was 1416.1 ± 1.9 kg/m3, the viscosity (293.15 K) was 92.7 ± 3.3 mPa·s and the mass density (293.15 K) was 1411.5 ± 1.9 kg/m3. The electrical conductivity (293.15 K) was 0.216 ± 0.002 S/m, the viscosity (298.15 K) was 71.8 ± 1.6 mPa·s and the mass density (298.15 K) was 1406.9 ± 1.9 kg/m3. It also gave a viscosity (303.15 K) of 56.8 ± 0.8 mPa·s, a mass density (303.15 K) of 1402.3 ± 1.9 kg/m3 and an electrical conductivity (303.15 K) of 0.336 ± 0.003 S/m. For the same compound, the viscosity (308.15 K) was 45.7 ± 0.8 mPa·s, the mass density (308.15 K) was 1397.7 ± 1.9 kg/m3 and the viscosity (313.15 K) was 37.4 ± 0.6 mPa·s. It also gave a mass density (313.15 K) of 1393.2 ± 1.9 kg/m3, an electrical conductivity (313.15 K) of 0.488 ± 0.005 S/m and a viscosity (318.15 K) of 31 ± 0.5 mPa·s. The mass density (318.15 K) was 1388.6 ± 1.9 kg/m3, the viscosity (323.15 K) was 26.1 ± 0.4 mPa·s and the mass density (323.15 K) was 1384 ± 1.9 kg/m3. For the same compound, the electrical conductivity (323.15 K) was 0.67 ± 0.007 S/m, the viscosity (328.15 K) was 22.2 ± 0.4 mPa·s and the mass density (328.15 K) was 1379.5 ± 1.9 kg/m3. The viscosity (333.15 K) was 19.1 ± 0.3 mPa·s, the mass density (333.15 K) was 1375 ± 1.9 kg/m3 and the electrical conductivity (333.15 K) was 0.869 ± 0.009 S/m. It also gave a viscosity (338.15 K) of 16.6 ± 0.3 mPa·s, a mass density (338.15 K) of 1370.5 ± 1.8 kg/m3 and a viscosity (343.15 K) of 14.5 ± 0.3 mPa·s. It also gave a mass density (343.15 K) of 1366.1 ± 1.8 kg/m3, an electrical conductivity (343.15 K) of 1.09 ± 0.01 S/m and a viscosity (348.15 K) of 12.8 ± 0.2 mPa·s. The mass density (348.15 K) was 1361.7 ± 1.8 kg/m3, the viscosity (353.15 K) was 11.4 ± 0.2 mPa·s and the mass density (353.15 K) was 1357.3 ± 1.8 kg/m3. It also gave an electrical conductivity (353.15 K) of 1.33 ± 0.01 S/m.

With CC[N+](C)(CC)CCOC.F[B-](F)(F)F the electrical conductivity (263.15 K) was 0.0055 ± 0.0001 S/m, the electrical conductivity (273.15 K) was 0.0156 ± 0.0002 S/m and the viscosity (283.15 K) was 1350 ± 240 mPa·s. It also gave a mass density (283.15 K) of 1188.2 ± 1.5 kg/m3, an electrical conductivity (283.15 K) of 0.0381 ± 0.0004 S/m and a viscosity (288.15 K) of 890 ± 140 mPa·s. It also gave a mass density (288.15 K) of 1184.8 ± 1.5 kg/m3, a viscosity (293.15 K) of 604 ± 81 mPa·s and a mass density (293.15 K) of 1181.3 ± 1.5 kg/m3. For the same compound, the electrical conductivity (293.15 K) was 0.0821 ± 0.0008 S/m, the viscosity (298.15 K) was 422 ± 49 mPa·s and the mass density (298.15 K) was 1177.8 ± 1.5 kg/m3. The viscosity (303.15 K) was 303 ± 30 mPa·s, the mass density (303.15 K) was 1174.4 ± 1.5 kg/m3 and the electrical conductivity (303.15 K) was 0.153 ± 0.002 S/m. It also gave a viscosity (308.15 K) of 222 ± 18 mPa·s, a mass density (308.15 K) of 1171 ± 1.5 kg/m3 and a viscosity (313.15 K) of 167 ± 11 mPa·s. It also gave a mass density (313.15 K) of 1167.7 ± 1.5 kg/m3, an electrical conductivity (313.15 K) of 0.262 ± 0.003 S/m and a viscosity (318.15 K) of 128 ± 7 mPa·s. It also gave a mass density (318.15 K) of 1164.4 ± 1.5 kg/m3, a viscosity (323.15 K) of 99.7 ± 3.9 mPa·s and a mass density (323.15 K) of 1161.1 ± 1.5 kg/m3. For the same compound, the electrical conductivity (323.15 K) was 0.414 ± 0.004 S/m, the viscosity (328.15 K) was 79.1 ± 2.1 mPa·s and the mass density (328.15 K) was 1157.9 ± 1.5 kg/m3. The viscosity (333.15 K) was 63.7 ± 1.1 mPa·s, the mass density (333.15 K) was 1154.7 ± 1.5 kg/m3 and the electrical conductivity (333.15 K) was 0.612 ± 0.006 S/m. The viscosity (338.15 K) was 52 ± 0.6 mPa·s, the mass density (338.15 K) was 1151.4 ± 1.5 kg/m3 and the viscosity (343.15 K) was 43 ± 0.7 mPa·s. For the same compound, the mass density (343.15 K) was 1148.2 ± 1.5 kg/m3, the electrical conductivity (343.15 K) was 0.857 ± 0.009 S/m and the viscosity (348.15 K) was 36 ± 0.6 mPa·s. It also gave a mass density (348.15 K) of 1145 ± 1.4 kg/m3, a viscosity (353.15 K) of 30.5 ± 0.5 mPa·s and a mass density (353.15 K) of 1141.8 ± 1.4 kg/m3. The electrical conductivity (353.15 K) was 1.16 ± 0.01 S/m.

— the NIST ThermoML archive (doi:10.1021/je500065k)
